Test results: ChEMBL document CHEMBL5725313, “Highly selective c-Met inhibitors as anticancer agents” (2017)

Target: Hepatocyte growth factor receptor (Homo sapiens, UniProt P08581)
Assay: c-Met In Vitro Kinase Assay: Optiplate-384 well plate (PerKinElmer), kinase buffer (50 mM Hepes pH7.5, 25 mM NaCl, 2 mM DTT, 0.01% Tween 20, 5 mM Mg2+, 0.5 mM Mn2+), c-Met kinase (1038-1346AA, prepared in-house), c-Met substrate (PerKinElmer, #TRF0127-M), Lance@Eu-W 1024-anti-phosphotyrosine (PT66), (PerKinElmer, #AD0068), ATP (Invitrogen), DMSO (Sigma, #34869), water (Millipore, model Milli-Q). A mixture of c-Met kinase (final concentration 12.5 nM) and test compound (final DMSO is 0.5%) is pre-incubated at 30° C. for 20 min. Then ATP (final concentration 2.5 uM) and kinase substrate (final concentration 50 nM) are added. The resulting mixture is kept at 30° C. for 1 hr, followed by addition of the c-Met antibody. After 1 hr, the plate is read at 615 nm and 665 nm. The ratio of absorption values at 665 nm and 615 nm is calculated and used for the data analysis as follows. This assay has a Minimum Significant Ratio (MSA) of 2-3.

Chain of Hepatocyte growth factor receptor (P08581 whole entry): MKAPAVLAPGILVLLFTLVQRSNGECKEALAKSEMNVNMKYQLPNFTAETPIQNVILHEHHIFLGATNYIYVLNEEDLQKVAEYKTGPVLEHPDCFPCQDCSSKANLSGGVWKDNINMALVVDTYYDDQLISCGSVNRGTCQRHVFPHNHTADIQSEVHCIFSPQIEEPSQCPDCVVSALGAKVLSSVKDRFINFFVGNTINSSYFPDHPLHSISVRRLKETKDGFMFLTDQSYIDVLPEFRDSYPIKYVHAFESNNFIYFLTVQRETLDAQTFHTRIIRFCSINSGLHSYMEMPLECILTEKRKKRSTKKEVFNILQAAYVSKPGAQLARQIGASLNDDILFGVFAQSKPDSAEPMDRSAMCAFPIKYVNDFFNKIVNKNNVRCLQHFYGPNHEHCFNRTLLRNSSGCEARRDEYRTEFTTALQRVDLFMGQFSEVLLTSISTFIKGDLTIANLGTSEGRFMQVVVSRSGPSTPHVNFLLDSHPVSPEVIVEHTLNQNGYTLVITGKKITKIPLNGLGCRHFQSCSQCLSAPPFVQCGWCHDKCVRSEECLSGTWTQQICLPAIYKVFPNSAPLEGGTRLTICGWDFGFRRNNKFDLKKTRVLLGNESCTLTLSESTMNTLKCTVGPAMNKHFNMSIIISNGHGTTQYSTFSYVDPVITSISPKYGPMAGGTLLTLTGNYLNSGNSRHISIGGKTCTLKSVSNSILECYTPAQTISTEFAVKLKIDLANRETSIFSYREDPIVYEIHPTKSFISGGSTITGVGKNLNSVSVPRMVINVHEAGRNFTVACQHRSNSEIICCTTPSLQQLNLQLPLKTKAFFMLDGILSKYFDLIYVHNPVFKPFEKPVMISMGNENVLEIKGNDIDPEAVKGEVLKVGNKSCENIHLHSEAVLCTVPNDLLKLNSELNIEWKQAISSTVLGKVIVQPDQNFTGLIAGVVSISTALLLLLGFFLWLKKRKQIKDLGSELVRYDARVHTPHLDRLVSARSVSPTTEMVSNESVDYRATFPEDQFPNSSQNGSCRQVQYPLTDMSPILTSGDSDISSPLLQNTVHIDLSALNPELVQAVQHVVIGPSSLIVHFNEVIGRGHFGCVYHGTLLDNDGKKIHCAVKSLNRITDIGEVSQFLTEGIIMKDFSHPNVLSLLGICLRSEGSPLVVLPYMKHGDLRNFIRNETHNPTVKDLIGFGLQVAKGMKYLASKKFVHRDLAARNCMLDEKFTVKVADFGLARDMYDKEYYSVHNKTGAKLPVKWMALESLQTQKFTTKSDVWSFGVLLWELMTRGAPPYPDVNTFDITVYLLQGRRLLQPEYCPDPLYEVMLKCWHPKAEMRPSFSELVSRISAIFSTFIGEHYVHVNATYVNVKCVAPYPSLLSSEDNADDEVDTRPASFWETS

| Structure (SMILES) | IC50 [nM] |
| --- | --- |
| Cn1cc2c(F)c(C(F)(F)c3nnc4ccc(-c5cncc(Cl)c5)nn34)ccc2n1 | 194 |
| Cc1cncc(-c2ccc3nnc(C(F)(F)c4ccc5nn(C)cc5c4F)n3n2)c1 | 119 |
| Cn1cc2c(F)c(C(F)(F)c3nnc4ccc(-c5cncc(F)c5)nn34)ccc2n1 | 261 |
| CNC(=O)c1ccc(-c2ccc3nnc(C(F)(F)c4ccc5nn(C)cc5c4F)n3n2)cn1 | 149 |
